From a melting point compilation (Tetko et al.; mined from patent text by program, amines drawn as free bases though some values may be those of a salt)

| melting point | Compound |
| --- | --- |
| 70 to 71 °C | CCOC(=O)CCc1oc(-n2ccnc2C)nc1-c1ccc(Cl)cc1 |
| 169 to 170 °C | O=C1CCc2ccc(OCCCCN3CCN(c4cccc5c4CCCC5=O)CC3)nc2N1 |
| 161 to 163 °C | CCOC(=O)c1cc(C)n(-c2cccc(C(=O)O)c2)c1-c1ccccc1 |
| 156 to 158 °C | COCCOCCN1C(=O)C2(COc3cc4c(cc32)OCCO4)c2c1ccc1ncsc21 (stereo not drawn) |
| 102 to 104 °C | CS(=O)(=O)c1cc([N+](=O)[O-])ccc1OC(F)(F)F |
| 59 to 60 °C | CCCc1cc(CC(=O)OC)ccc1OC1COc2ccc(C(C)=O)c(O)c2C1 (stereo not drawn) |
| 174 to 175 °C | CCCOc1ccc2[nH]c3c([N+](=O)[O-])ccc(Cl)c3c(=O)c2c1 |
| 87 to 90 °C | CCOC(=O)CC1(c2ccc(Cl)c(Cl)c2)CNC(=O)C1 (stereo not drawn) |
| 193 °C | COC(=O)C1=NNC(C)=C(C(=O)OC(C)C)C1c1cccc([N+](=O)[O-])c1 (stereo not drawn) |
| 234 to 236 °C | Cc1cccc(C(=O)Nc2cccc3c2C(=O)N(C2CCC(=O)NC2=O)C3=O)c1 (stereo not drawn) |
| 84 to 85 °C | CCOC(=O)c1cc(-c2ccc(Cl)cc2)cnc1C(F)(F)F |
| 220 to 224 °C | COc1ccccc1C1(N)C(=O)Nc2ccc(Cl)cc21 (stereo not drawn) |
| 190 to 192 °C | COc1cc(C(=O)NS(=O)(=O)c2ccccc2)ccc1CN1CCOc2ccc(NC(=O)CC3CCCC3)cc21 |
| > 200 °C | Cc1nc(N2CCN(Cc3cc(F)cc(F)c3)C2=O)sc1C(N)=O |
| 169 to 172 °C | COc1ccccc1Oc1c(NS(=O)(=O)c2ccc(C(C)(C)C)cc2)nc(-c2ncccn2)nc1OCCOc1ccc(C(C)=O)cc1 |
| 204 to 206 °C | COC(=O)OCC(COC(=O)OC)OCn1cnc2c(=O)[nH]c(N)nc21 |
| 90 to 96 °C | COc1cc2cn(CC3CCCCO3)nc2cc1OC (stereo not drawn) |

| melting point | Compound |
| --- | --- |
| 115 to 116 °C | CC(C)Oc1ccc(CCCOc2nn(Cc3ccccc3)cc2CC(=O)O)c(Oc2ncc(C(F)(F)F)cc2Cl)c1 |
| 82 to 84 °C | COc1ccc(C(=O)COC(C)=O)cc1OC |
| 243 to 245 °C | CCC(=O)c1cc(C#N)c(=O)[nH]c1CC |
| 149 to 153 °C | CCC1(F)CN(C2CCCC2)c2nc(Nc3ccc(C(=O)NC4CCN(C)CC4)cc3OC)ncc2N(C)C1=O (stereo not drawn) |
| 75 to 76.5 °C | CCOC(=O)c1cc(CC)sc1Nc1ccc(Cl)cc1[N+](=O)[O-] |
| 100 to 101 °C | CCOC(=O)c1cccc(-c2nc(-c3cc(C)oc3C)cs2)c1 |
| 179 °C | O=C(Nc1ccnc(Br)c1)C1(O)CCCCC1 |
| 101 to 102 °C | CCOC(=O)Oc1cc2occ(C=O)c(=O)c2cc1OC(=O)OCC |
| 123 to 125 °C | COc1cc([N+](=O)[O-])c2nccc(C)c2c1OC |
| 144 to 146 °C | CCOCCn1cc(C2CCN(CCOc3ccc(C)cc3C(=O)O)CC2)c2cc(OC)ccc21 |
| 89 to 91 °C | COc1ccc(C(=O)c2cnn(C)c2O)c(Cl)c1N=C1CCCCS1=O (stereo not drawn) |
| 142 to 143 °C | CCOC(=O)COc1cc(OC)c2c(c1[N+](=O)[O-])OC1(CCCCC1)CC2=O |
| 193 to 195 °C | CCCC(=O)NS(=O)(=O)c1ccc(C(=O)/C=C/c2cc(N3CCCC3)c(OC)cc2OC)cc1 |
| 209 °C | COc1cccn2c(=O)c(CCN3CCC(c4noc5cc(F)ccc45)CC3)c(C)nc12 |
| 95 to 97 °C | O=C1CCCc2cc(OCc3ccccc3)ccc21 |
| 125 to 126 °C | CS(=O)(=O)c1ccc(Oc2cc(OCc3ccccc3)c3[nH]c(-c4ncc(CO)s4)cc3c2)cc1 |

The remaining lines, values behind:

| Compound | melting point |
| --- | --- |
| COc1ccc2[nH]cc(CCNC=O)c2c1Cl | 120 to 121 °C |
| CN(c1nc(-c2cc3ccccc3[nH]c2=O)cs1)S(=O)(=O)c1ccccc1 | 242 to 244 °C |
| C[Si](C)(C)c1ccc2cc(C(=O)O)n(Cc3cccc(F)c3)c2c1 | 189 to 191 °C |
| O=C(O)COc1ccc2c(-c3ccc(Cl)cc3)noc2c1Cl | 254 to 257 °C |
| COCCOc1ccc(C=O)c(O)c1 | 64.5 to 65.5 °C |
| CCN(CC)CCNc1ccc(CN(C)S(=O)(=O)CC)c2sc3ccccc3c(=O)c12 | 159 to 161 °C |
| CCN(c1ccccc1)c1ccc(C(=O)c2ccccc2)cc1N | 82 to 82.5 °C |
| COC(=O)CCC(=O)c1ccc(S)cc1 | 83 to 84 °C |
| O=C(O)Cc1ccc2ccn(C(=O)c3ccccc3)c2c1 | 113 to 115 °C |
| C=C1CC2(C)C(CCC2(C)O)C2CCC3=CC(=O)CCC3(C)C12 (stereo not drawn) | 155 to 157 °C |
| CSc1ccc(-c2nn(Cc3ccccc3)c(=S)cc2-c2ccc(F)cc2)cc1 | 108 °C |
| CN(C)C1CCc2c(ccc(O)c2C(N)=O)C1 (stereo not drawn) | 65 to 66 °C |
| CN(Cc1ccccc1Sc1nc2ccccc2[nH]1)c1ccccc1 | 168 to 169 °C |
| O=C(Cc1ccccc1)N[C@@H]1C(=O)N2C(C(=O)O)=C(OS(=O)(=O)C(F)(F)F)NC[C@H]12 (racemic) | 100 to 102 °C |
| Cc1oc(-c2ccccc2)nc1COc1ccc(COc2nn(-c3ccccc3)cc2/C=C/C(=O)O)cc1 | 186 to 187 °C |
| N#Cc1ccc(Nc2nc(Oc3c(F)cccc3F)ccc2[N+](=O)[O-])cc1 | 234 to 236 °C |
| COC(=O)c1ccc(Oc2ccc(NC(=O)c3ccc([N+](=O)[O-])cc3Br)cc2NC(=O)c2ccc([N+](=O)[O-])cc2Br)cc1C(=O)OC | 138 to 142 °C |
| O=C(O)c1cc(Br)c2cccnc2c1O | 244 to 246 °C |
| CC(C)=Cc1c(C)nc(C)c(CO)c1-c1ccccc1 | 48 to 50 °C |
| CC(C)C(NC(=O)OC(C)(C)C)C(=O)NC(C(=O)OC1CC(n2cc(C=CBr)c(=O)[nH]c2=O)OC1CN=[N+]=[N-])C(C)C (stereo not drawn) | 133 to 135 °C |
| NC(=NN=Cc1c(Cl)cccc1Cl)Nc1c(Cl)cccc1Cl | 230 to 231 °C |
| Cn1cc(-c2cc3nccnc3[nH]2)c2cc(C(=O)NC(C)(C)CO)ccc21 | 210 to 214 °C |

| Compound | melting point |
| --- | --- |
| Cc1ccc2cccc(OCc3c(Cl)ccc(S(=O)(=O)NC(C)(C)C)c3Cl)c2n1 | 191 °C |
| C=CCOC(=O)[C@@H]1CC[C@@H]2CN1C(=O)N2OCc1ccccc1 | 60 to 62 °C |
| CC(=O)OCCN1CC(c2ccccc2)NC1=O (stereo not drawn) | 88 to 90 °C |
| COc1cccc(NC(=O)NC2N=C(c3ccccc3)c3ccccc3N(CC(=O)N3CCCC3)C2=O)c1 (stereo not drawn) | 193 to 194 °C |
| CCN1CCCC(NC2c3ccccc3Oc3ccccc32)C1 (stereo not drawn) | 47.5 to 48.5 °C |
| C[C@H]1CC(=O)N1c1ccc(C(=O)OCc2ccccc2)cc1 | 89 °C |
| O=C(O)c1ccc(OCCNC(=O)C2Cc3ccccc3N2S(=O)(=O)c2ccc(-c3cccc(C(F)(F)F)c3)cc2)c(Cl)c1 (stereo not drawn) | 135 to 140 °C |
| CC(=O)Nc1cccc(Nc2ncnc3[nH]cc(C(=O)c4ccccc4C)c23)c1 | > 300 °C |
| CCOC(=O)c1cn(-c2nccs2)cn1 | 142 to 143 °C |
| NC1=NN(/C=N/O)C(=O)C1Cc1ccccc1 (stereo not drawn) | 105 to 108 °C |
| C=CCNc1ccc(C(=O)OC)cc1 | 71 to 73 °C |
| COC(=O)c1cc(-c2nnn(C)n2)c(C(=O)OC)s1 | 121 to 122 °C |
| CCOC(=O)c1cc2cc(N)ccc2nn1 | 204 to 206 °C |
| N#Cc1cc(F)c(-n2nc(C(F)(F)F)[nH]c2=O)cc1F | 51 °C |
| CC(C)Oc1ccc(-n2c(-c3ccc(C(=O)O)cc3)c(C(=O)O)c3cc(Oc4ccc(Cl)cc4)ccc32)cc1 | 217 to 222 °C |
| COc1cccc(NC(=O)NCC(=O)N(CC(=O)OC(C)(C)C)c2ccccc2C(=O)c2ccccc2)c1 | 153 to 155 °C |
| CC(C)c1nn(-c2ccc(C(F)(F)F)cn2)cc1CCCCOc1ccc(CCC(=O)O)cc1 | 144 to 145 °C |
| CON=C(C#N)c1ccccc1COc1ccc(Cl)cc1 | 69 to 71 °C |
| Cc1cc(-c2cccc(C(F)(F)F)c2)n2nc(C(F)(F)F)nc2n1 | 133 to 134 °C |
| Cc1ccc2c(c1)c(C1=C(Br)C(=O)N(C)C1=O)cn2C | 107 to 110 °C |
| Cc1nn(C(C)(C)C)c(N)c1C#N | 156 to 157 °C |
| CN(Cc1cc(C(F)(F)F)cc(C(F)(F)F)c1)C(=O)c1c(-c2ccc(F)cc2)c2c(c(=O)n1C)CCCN2C | 230 to 232 °C |

| Compound | melting point |
| --- | --- |
| CSc1snc(OCC#CI)c1C#N | 145 to 146 °C |
| C=C1CC(C(=O)O)NC(C(=O)O)C1 (stereo not drawn) | > 250 °C |
| c1ccc2c(SCc3ccncc3)ncnc2c1 | 117 to 118 °C |
| COCC1C(=O)C(C)(C)C(=O)N1c1ccc(C#N)c(Cl)c1 (stereo not drawn) | 98 to 99 °C |
| CN1CCN(CCSc2nc3ccccc3[nH]2)CC1 | 93 to 95 °C |
| N#CCN1CCc2ccccc2C(Oc2ccc(C(F)(F)F)cc2)C1 (stereo not drawn) | 125 to 129 °C |
| C#Cc1ccc(C(CC2CCCC2)C(=O)O)cc1 (stereo not drawn) | 80 to 83 °C |
| CC(C)(Oc1ccc(CC(=O)Nc2cc(Cl)c(Cl)c(Cl)c2)cc1)C(=O)O | 160 °C |
| Cc1cc(C)c(S(=O)(=O)Nc2onc(C)c2Br)c(C)c1 | 92 to 95 °C |
| Cc1cc([N+](=O)[O-])ccc1C(=O)Nc1ccc2ccc(Cl)nc2n1 | 229 °C |
| CCCSc1sc(C(N)=O)c2c1-c1nc(-c3ccccc3)sc1CC2 | 203 to 204 °C |
| O=C(c1ccc(CN2CC=CCC2)cc1)N1CCN2C(=O)OC(c3ccccc3)(c3ccccc3)C2C1 (stereo not drawn) | 189 to 191 °C |
| O=C(c1ccc(Cl)cc1)N1CCc2cc(S(=O)(=O)n3cc(-c4ccccc4)[nH]c3=O)ccc21 | 220 to 221 °C |
| Cc1cc(C)cc(S(=O)c2c(C(C)C)nc(C)n2C)c1 (stereo not drawn) | 100 to 101 °C |
| CC(=O)NC(NC(=O)c1cc(C)cc(C)c1)C(N)=O (stereo not drawn) | 244 to 245 °C |
| O=c1oc2ncccc2n1CCBr | 109 to 110 °C |
| O=C(CSc1ccnc2ccccc12)c1ccc(OCc2ccccc2)cc1 | 135 to 136 °C |
| CC(C)(C)OC(=O)NCCC[C@@H](CO)NC(=O)OCC1c2ccccc2-c2ccccc21 | 107 to 109 °C |
| CC(C)CCNC(Nc1cc(C(F)(F)F)cc(C(F)(F)F)c1)=C(C#N)C(=O)OC(C)(C)C | 128 to 129 °C |
| Cc1ccc(Sc2nc(C(N)=O)nc3c(C)csc23)cc1 | 243 to 246 °C |
| Cc1cccc(Nc2cc(Nc3cccc(OCCCN(C)C)c3)ncn2)c1 | 142 to 144 °C |
